Results as given in US20250236608A1, “EGFR INHIBITORS” (Blueprint Medicines Corporation, priority 2022, published 2025).

How the values were obtained:
EGFR L858R = EGFR L858R (Homo sapiens (Human), UniProt P00533, L858R); test: Biochemical EGFR inhibition assay, EGFR L858R; details: Caliper mobility shift; 1.0 mM ATP or ATP Km; read-out: Enz EGFR_L858R IC50
EGFR (d746-750) = EGFR (d746-750) (Homo sapiens (Human), UniProt P00533, DEL746-750); test: Biochemical EGFR inhibition assay, EGFR (d746-750); details: Caliper mobility shift; 1.0 mM ATP or ATP Km; read-out: Enz EGFR_Exon19-del746-750 IC50
EGFR (d746-750), sequence (P00533 other isoform, or with tags, fused parts or gaps del 1-694/del 746-750 limits assumed): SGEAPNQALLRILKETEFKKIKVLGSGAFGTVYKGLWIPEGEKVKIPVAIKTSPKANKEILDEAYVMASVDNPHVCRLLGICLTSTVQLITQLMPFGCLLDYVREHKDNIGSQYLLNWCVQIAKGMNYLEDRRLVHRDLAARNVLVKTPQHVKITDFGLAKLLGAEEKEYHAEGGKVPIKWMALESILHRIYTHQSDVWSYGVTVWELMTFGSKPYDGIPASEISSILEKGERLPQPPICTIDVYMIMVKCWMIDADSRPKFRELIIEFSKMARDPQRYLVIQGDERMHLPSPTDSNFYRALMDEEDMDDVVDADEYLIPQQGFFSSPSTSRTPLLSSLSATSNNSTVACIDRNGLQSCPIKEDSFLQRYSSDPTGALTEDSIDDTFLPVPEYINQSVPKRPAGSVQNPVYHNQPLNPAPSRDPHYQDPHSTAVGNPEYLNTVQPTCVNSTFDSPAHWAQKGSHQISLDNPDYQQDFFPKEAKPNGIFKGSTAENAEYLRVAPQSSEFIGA

[1] = target: pEGFR (Tyr1068) in PC-9 cells (Ex19Del) (Homo sapiens (Human), UniProt P00533, DEL746-750); test: PC-9 pEGFR AlphaLISA assay; format: cell-based; details: 4 hours incubation, p-EGFR (Tyr1068) AlphaLISA, read-out: Ext pEGFR_PC-9 Ex19Del IC50
pEGFR (Tyr1068) in PC-9 cells (Ex19Del), sequence (P00533 other isoform, or with tags, fused parts or gaps del 746-750): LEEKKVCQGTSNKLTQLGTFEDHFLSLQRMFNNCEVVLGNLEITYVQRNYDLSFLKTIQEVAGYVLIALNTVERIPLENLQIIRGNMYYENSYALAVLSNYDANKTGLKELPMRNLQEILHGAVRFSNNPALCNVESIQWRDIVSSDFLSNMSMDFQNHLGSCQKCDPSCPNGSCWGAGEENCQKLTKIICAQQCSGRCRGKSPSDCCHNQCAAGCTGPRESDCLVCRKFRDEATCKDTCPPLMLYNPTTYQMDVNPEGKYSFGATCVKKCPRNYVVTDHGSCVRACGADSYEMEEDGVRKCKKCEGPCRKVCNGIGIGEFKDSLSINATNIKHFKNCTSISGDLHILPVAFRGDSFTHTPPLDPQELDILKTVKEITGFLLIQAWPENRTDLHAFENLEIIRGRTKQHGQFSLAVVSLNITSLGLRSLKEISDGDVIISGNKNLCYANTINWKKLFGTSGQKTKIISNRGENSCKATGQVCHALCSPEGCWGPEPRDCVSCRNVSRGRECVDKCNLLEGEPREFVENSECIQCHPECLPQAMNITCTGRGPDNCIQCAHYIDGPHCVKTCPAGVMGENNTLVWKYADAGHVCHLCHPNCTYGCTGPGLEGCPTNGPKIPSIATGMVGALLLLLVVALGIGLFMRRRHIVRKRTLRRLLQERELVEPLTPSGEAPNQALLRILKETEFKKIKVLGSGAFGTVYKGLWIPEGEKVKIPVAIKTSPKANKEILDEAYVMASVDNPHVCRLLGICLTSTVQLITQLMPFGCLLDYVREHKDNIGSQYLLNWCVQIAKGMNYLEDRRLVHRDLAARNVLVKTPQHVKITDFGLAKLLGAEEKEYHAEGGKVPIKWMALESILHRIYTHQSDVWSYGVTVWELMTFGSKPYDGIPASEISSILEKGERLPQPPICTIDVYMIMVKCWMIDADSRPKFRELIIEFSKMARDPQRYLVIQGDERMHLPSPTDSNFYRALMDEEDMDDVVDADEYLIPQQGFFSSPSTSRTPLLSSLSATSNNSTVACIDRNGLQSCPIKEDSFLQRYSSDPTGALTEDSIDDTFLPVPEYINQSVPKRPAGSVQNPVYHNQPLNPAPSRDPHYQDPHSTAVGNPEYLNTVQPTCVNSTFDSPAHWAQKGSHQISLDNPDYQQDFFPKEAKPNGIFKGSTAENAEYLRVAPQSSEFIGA
How it was run: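 First, cells settled overnight in 10% FBS medium. Second, a 10-point, 4-fold series of test agents was applied for 4 h at 37° C. Third, lysates were probed with AlphaLISA acceptor and donor beads, incubated overnight in the dark. Last, IC50 was taken from the dose-response.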

EGFR L858R, sequence (P00533 25-1210 L858R): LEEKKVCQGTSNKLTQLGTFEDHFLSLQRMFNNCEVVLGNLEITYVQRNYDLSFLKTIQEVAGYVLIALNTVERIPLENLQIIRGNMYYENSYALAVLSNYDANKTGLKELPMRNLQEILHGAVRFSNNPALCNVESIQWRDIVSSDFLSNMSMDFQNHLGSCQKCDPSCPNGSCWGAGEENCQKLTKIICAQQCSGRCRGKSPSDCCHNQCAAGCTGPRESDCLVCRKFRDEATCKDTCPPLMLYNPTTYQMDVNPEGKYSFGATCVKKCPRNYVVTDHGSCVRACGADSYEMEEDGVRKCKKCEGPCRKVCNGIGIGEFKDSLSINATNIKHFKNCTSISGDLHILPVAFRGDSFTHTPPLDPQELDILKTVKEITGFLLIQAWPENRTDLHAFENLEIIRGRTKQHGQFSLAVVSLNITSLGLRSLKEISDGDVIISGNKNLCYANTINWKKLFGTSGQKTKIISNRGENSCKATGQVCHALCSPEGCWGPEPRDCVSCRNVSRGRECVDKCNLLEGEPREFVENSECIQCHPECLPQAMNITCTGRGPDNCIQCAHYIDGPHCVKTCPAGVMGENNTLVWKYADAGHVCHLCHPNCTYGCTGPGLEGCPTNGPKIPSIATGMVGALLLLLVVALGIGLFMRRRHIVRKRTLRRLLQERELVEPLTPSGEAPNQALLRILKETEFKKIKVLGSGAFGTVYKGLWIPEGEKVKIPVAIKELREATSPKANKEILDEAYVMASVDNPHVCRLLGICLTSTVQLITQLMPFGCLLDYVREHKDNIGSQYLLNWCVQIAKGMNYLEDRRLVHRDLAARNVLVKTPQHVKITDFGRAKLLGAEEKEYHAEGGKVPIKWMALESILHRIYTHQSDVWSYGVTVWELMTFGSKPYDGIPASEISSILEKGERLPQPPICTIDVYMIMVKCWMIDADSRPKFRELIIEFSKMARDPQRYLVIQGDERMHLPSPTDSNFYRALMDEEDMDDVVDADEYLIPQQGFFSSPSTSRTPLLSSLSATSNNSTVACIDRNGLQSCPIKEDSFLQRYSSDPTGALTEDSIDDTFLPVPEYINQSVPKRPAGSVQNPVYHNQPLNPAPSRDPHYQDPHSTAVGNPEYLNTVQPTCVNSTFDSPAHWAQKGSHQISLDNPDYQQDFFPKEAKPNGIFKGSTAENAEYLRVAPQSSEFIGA

Row | SMILES | IC50 (EGFR L858R) [nM] | IC50 (EGFR (d746-750)) [nM] | IC50 [1] [nM]
1 | COc1cc2ncnc(-c3cn(C)nc3-c3ccccc3)c2nc1O[C@@H](C)c1cccnc1F [Example 47, (S)-6-(1-(2-fluoropyridin-3-yl)ethoxy)-7-methoxy-4-(1-methyl-3-phenyl-1H-pyrazol-4-yl)pyrido[3,2-d]pyrimidine] | 2.6 | 1.4 | 2.1
2 | COc1cc2ncnc(-c3cn(C)nc3-c3ccccc3)c2nc1O[C@@H](C)c1nnnn1C [Example 45, (S)-7-methoxy-6-(1-(1-methyl-1H-tetrazol-5-yl)ethoxy)-4-(1-methyl-3-phenyl-1H-pyrazol-4-yl)pyrido[3,2-d]pyrimidine] | 9.4 | 3.6 | 14.3
3 | CCOc1cc2ncnc(-c3cn(CC)nc3-c3ccccc3)c2cc1[C@H](C)O (single isomer, unassigned) [Example 107, (S)-1-(7-ethoxy-4-(1-ethyl-3-phenyl-1H-pyrazol-4-yl)quinazolin-6-yl)ethan-1-ol or (R)-1-(7-ethoxy-4-(1-ethyl-3-phenyl-1H-pyrazol-4-yl)quinazolin-6-yl)ethan-1-ol] | 1.3 | 0.6 | 3.3
4 | COc1cc2ncnc(-c3cn(C)nc3-c3ccc(F)cc3F)c2cc1N1CCOCC1 [Example 166, 4-(4-(3-(2,4-difluorophenyl)-1-methyl-1H-pyrazol-4-yl)-7-methoxyquinazolin-6-yl)morpholine] | 1.7 | 0.7 | 3.2
5 | COc1cc2ncnc(-c3cn(C)nc3-c3ccccc3)c2cc1-c1cccc2c1cnn2C [Example 141, 7-methoxy-6-(1-methyl-1H-indazol-4-yl)-4-(1-methyl-3-phenyl-1H-pyrazol-4-yl)quinazoline] | 7.1 | 1.9 | 7.6
6 | C[C@H](O)c1cc2c(-c3cn(CC(F)F)nc3-c3ccccc3)ncnc2cc1O[C@H]1CCOC1 (single isomer, unassigned) [Example 117, (S)-1-(4-(1-(2,2-difluoroethyl)-3-phenyl-1H-pyrazol-4-yl)-7-(((S)-tetrahydrofuran-3-yl)oxy)quinazolin-6-yl)ethan-1-ol or (R)-1-(4-(1-(2,2-difluoroethyl)-3-phenyl-1H-pyrazol-4-yl)-7-(((S)-tetrahydrofuran-3-yl)oxy)quinazolin-6-yl)ethan-1-ol] | 1.9 | 0.6 | 3.4
7 | COc1cc2ncnc(-c3cn(C)nc3-c3ccccc3)c2cc1OC1CCOC1 (stereo not drawn) [Example 11, 7-methoxy-4-(1-methyl-3-phenyl-1H-pyrazol-4-yl)-6-((tetrahydrofuran-3-yl)oxy)quinazoline] | 2.9 | 2.4 | 5.1
8 | COc1cc2ncnc(-c3cn(C)nc3-c3ccccc3)c2cc1OC(=O)N1[C@@H](C)COC[C@@H]1C [Example 64, 7-methoxy-4-(1-methyl-3-phenyl-1H-pyrazol-4-yl)quinazolin-6-yl (3S,5S)-3,5-dimethylmorpholine-4-carboxylate] | 6.1 | 2.1 | 13.7
9 | COc1cc2ncnc(-c3cn(C)nc3-c3ccccc3)c2cc1NC(=O)C1CCN1 (stereo not drawn) [Example 228, N-(7-methoxy-4-(1-methyl-3-phenyl-1H-pyrazol-4-yl)quinazolin-6-yl)azetidine-2-carboxamide] | 2.8 | 1.7 | 5.6
10 | COc1cc2ncnc(-c3cn(C)nc3-c3ccccc3)c2cc1NC(=O)c1ccn(C(C)C)n1 [Example 205, 1-isopropyl-N-(7-methoxy-4-(1-methyl-3-phenyl-1H-pyrazol-4-yl)quinazolin-6-yl)-1H-pyrazole-3-carboxamide] | 1.2 | 0.8 | 0.8

Continued, values first:

Row | IC50 (EGFR L858R) [nM] | IC50 (EGFR (d746-750)) [nM] | IC50 [1] [nM] | SMILES
11 | 3.4 | 1.9 | 2.1 | CCOc1cc2ncnc(-c3cn(C)nc3-c3ccccc3)c2nc1NC(=O)C12CC(C1)C2 [Example 311, N-(7-ethoxy-4-(1-methyl-3-phenyl-1H-pyrazol-4-yl)pyrido[3,2-d]pyrimidin-6-yl)bicyclo[1.1.1]pentane-1-carboxamide]
12 | 2.2 | 1.1 | 4.4 | COc1cc2ncnc(-c3cn(C)nc3-c3ccccc3)c2nc1NC(=O)c1ccc(C2CC2)nc1 [Example 357, 6-cyclopropyl-N-(7-methoxy-4-(1-methyl-3-phenyl-1H-pyrazol-4-yl)pyrido[3,2-d]pyrimidin-6-yl)nicotinamide]
13 | 1.6 | 0.9 | 1 | CCOc1cc2ncnc(-c3cn(C)nc3-c3ccccc3)c2cc1NC(=O)c1cnn(CC)c1 [Example 298, N-(7-ethoxy-4-(1-methyl-3-phenyl-1H-pyrazol-4-yl)quinazolin-6-yl)-1-ethyl-1H-pyrazole-4-carboxamide]
14 | 3.7 | 1.9 | 6 | CCC(=O)Nc1cc2c(-c3cn(C)nc3-c3ccccc3)ncnc2cc1OCC1COC1 [Example 277, N-(4-(1-methyl-3-phenyl-1H-pyrazol-4-yl)-7-(oxetan-3-ylmethoxy)quinazolin-6-yl)propionamide]
15 | 1.3 | 0.9 | 1.5 | CCOc1cc2ncnc(-c3cn(C)nc3-c3ccccc3)c2cc1NC(=O)[C@@]12COC[C@@H]1C2 [Example 290, (1R,5R)—N-(7-ethoxy-4-(1-methyl-3-phenyl-1H-pyrazol-4-yl)quinazolin-6-yl)-3-oxabicyclo[3.1.0]hexane-1-carboxamide]
16 | 2.2 | 1.3 | 2.3 | COc1cc2ncnc(-c3cn(C)nc3-c3ccccc3)c2cc1NC(=O)[C@H](C)F (single isomer, unassigned) [Example 244, (S)-2-fluoro-N-(7-methoxy-4-(1-methyl-3-phenyl-1H-pyrazol-4-yl)quinazolin-6-yl) propenamide or (R)-2-fluoro-N-(7-methoxy-4-(1-methyl-3-phenyl-1H-pyrazol-4-yl)quinazolin-6-yl) propenamide]
17 | 1.8 | 1.1 | 0.8 | CCn1cc(C(=O)Nc2cc3c(-c4cn(CC(F)F)nc4-c4ccccc4)ncnc3cc2OC)cn1 [Example 268, N-(4-(1-(2,2-difluoroethyl)-3-phenyl-1H-pyrazol-4-yl)-7-methoxyquinazolin-6-yl)-1-ethyl-1H-pyrazole-4-carboxamide]
18 | 4.1 | 1.7 | 4 | COc1cc2ncnc(-c3cn(C)nc3-c3ccccc3)c2cc1NC(=O)[C@H](C)CN(C)C (single isomer, unassigned) [Example 239, (R)-3-(dimethylamino)-N-(7-methoxy-4-(1-methyl-3-phenyl-1H-pyrazol-4-yl)quinazolin-6-yl)-2-methylpropanamide or (S)-3-(dimethylamino)-N-(7-methoxy-4-(1-methyl-3-phenyl-1H-pyrazol-4-yl)quinazolin-6-yl)-2-methylpropanamide]
19 | 70.7 | 47.3 | 636 | [2H]C([2H])([2H])n1ncc(-c2ncnc3cc(OC)c(NC(=O)C4(C(F)(F)F)CC4)nc23)c1-c1ccccc1 [Example 492]
20 | 92.4 | 31.9 | 258 | [2H]C([2H])([2H])n1ncc(-c2ncnc3cc(OC)c(NC(=O)C45CC(N(C)C)(C4)C5)nc23)c1-c1ccccc1 [Example 493]
